Results as given in US20150072935A1, “COMPOSITION AND EXTERNAL APPLICATION FOR ACCELERATION OF MUSCLE DIFFERENTIATION AND IMPROVING OF MUSCLE MASS” (NEOPHARM CO., LTD., priority 2013, published 2015).
Numbered stars: 1 amine (or outer) side, 2 acyl side, 3 side chain; on linkers, the order of the positions; unused ones are H or OH. Square brackets hold non-standard residues; d marks the D form. Peptide text beside a SMILES is read from it. * marks the point of attachment. ξ: configuration not given here. Biotin = O=C1N[C@H]2[C@H](CS[C@H]2CCCCC(=O)*)N1; X1 = O=C(C(CC1=NCNC1)N[*:1])[*:2]; ξW = NC(Cc1c[nH]c2ccccc12)C(=O)O; ξF = NC(Cc1ccccc1)C(=O)O; ξK = NCCCCC(N)C(=O)O; ξA = CC(N)C(=O)O

Assays:
C2C12 myoblast cells [1] = assay: Muscle differentiation promotion in C2C12 myoblast cells depending on differentiation time, western blotting; type: cell-based; settings: differentiation medium with 2% horse serum, 50 uM, after 1, 2 and 3 days of differentiation induction, western blotting (FIG. 2)
Description: Undifferentiated C2C12 myoblast cells were cultured in a dish having a diameter of 100 mm using a DMEM with 10% fetal bovine serum (FBS). When the cells covered about 70% of an area, the cells were seeded in a 6-well dish at 8×10^5/well and cultured until the cells covered 90% of an area. Thereafter, muscle differentiation was induced using a differentiation medium with 2% horse serum. In this case, the cells were treated with a myotide (Chemical Formula 2, Incospharm Corp.) composition (0.1% DMSO in phosphate buffer saline) of the present invention at a content of 50 uM. After 1, 2, and 3 days of differentiation induction, cell lysis was performed using a lysis buffer, and a degree of muscle differentiation was confirmed by western blotting.

C2C12 myoblast cells [2] = assay: Muscle differentiation promotion in C2C12 myoblast cells, western blotting of muscle proteins, concentration dependence; type: cell-based; settings: differentiation medium with 2% horse serum, 0, 10 and 100 uM, after 3 days of differentiation induction, western blotting (FIG. 1)
Description: Undifferentiated C2C12 myoblast cells were cultured in a dish having a diameter of 100 mm using a Dulbecco's modified Eagle's medium (DMEM) with 10% fetal bovine serum (FBS). When the cells covered about 70% of an area, the cells were seeded in a 6-well dish at 8×10^5/well and cultured until the cells covered 90% of an area. Thereafter, muscle differentiation was induced using a differentiation medium with 2% horse serum. In this case, the cells were treated with a myotide (Chemical Formula 2, Incospharm Corp.) composition (0.1% DMSO in phosphate buffer saline) of the present invention at contents of 0, 10, and 100 uM. The differentiation medium was changed into a new differentiation medium containing […] every 24 hours, and after 3 days of differentiation induction, muscles cell lysis was performed using a cell lysis buffer, followed by western blotting. In order to confirm a degree of muscle differentiation, protein expression amounts of myosin heavy chain I, caveolin-3, and myogenin, which are representative protein of muscles, were observed. […] Therefore, the composition according to the present invention promoted muscle differentiation.

CC(NC(=O)C(Cc1c[nH]c2ccccc12)NC(=O)C(CC1=NCNC1)NC(=O)CCCC[C@@H]1SC[C@@H]2NC(=O)N[C@@H]21)C(=O)NC(Cc1c[nH]c2ccccc12)C(=O)NC(Cc1ccccc1)C(=O)NC(CCCCN)C(N)=O (some centres unmarked) [myotide] (Biotin-[X1][ξW][ξA][ξW][ξF][ξK]-NH2)
expression of muscle proteins (myosin heavy chain I, caveolin-3, and myogenin) (C2C12 myoblast cells [1]): increased | expression of muscle proteins (myosin heavy chain I, caveolin-3, myogenin) (C2C12 myoblast cells [2]): concentration-dependently increased
